Patent US20230095498A1, “NOVEL COMPOUND AND USE THEREOF” (THE CATHOLIC UNIVERSITY OF KOREA INDUSTRY-ACADEMIC …, priority 2020, published 2023)

What was measured:
[1] = system: immunodeficient mice (NSG) injected with transplantation rejection patient PBMCs; test: Transplantation rejection patient imitation avatar (humanized NSG mouse) model, immunosuppressant effect; assay type: in vivo; conditions: group injected with transplantation rejection patient PBMCs
Excerpt: In order to produce the transplantation rejection avatar animal model of an embodiment of the present invention, PBMCs (peripheral blood mononuclear cells) derived from normal or transplantation rejection patients were intravascularly injected into 8 to 10 week old immunodeficient mice (NSG) at 5×10^6/mice. After 3 weeks, the engraftment of normal or transplantation rejection patients (kidney transplantation rejection patients) cells in the blood was identified in blood cells. Thereafter, the mice were sacrificed 4 weeks after cell transplantation to identify the infiltration of human cells and histological changes in the tissue (FIG. 8).
In order to identify that the transplantation rejection patient imitation avatar model in Example 8 above was properly constructed, engraftment of human cells was analyzed through flow cytometry. Specifically, blood was obtained from the transplantation rejection humanized mice of Example 1 (normal PBMC injection group, HC; transplantation rejection patient PBMC injection group, Patient), and then cells that were positive in reaction with human antibodies were analyzed. In addition, blood […] (SCR) concentration was measured as an index for measuring kidney damage in PBMC-injected mice of normal subjects and transplantation rejection patients. SCR was measured by the quantitative enzymatic colorimetric method (Stanbio laboratory, 0430-120) by isolating serum in animal blood.
Specifically, the transplantation rejection humanized mouse model established in Example 8 above was classified as 1) a normal PBMC injection group, 2) a normal PBMC injection group treated with an immunosuppressant, 3) a transplantation rejection patient PBMC injection group, and 4) a transplantation rejection patient PBMC injection group treated with an immunosuppressant. SD911 was used as the immunosuppressant. Specifically, the animal model of Example 8 above was treated with SD911 at 3 weeks after engraftment of PBMCs. and the same amount of physiological saline was treated as a control group. […]

[2] = system: IL-17; test: IL-17 ELISA of cell culture medium under anti-CD3 immune activity; assay type: cell-based, mouse; conditions: anti-CD3 stimulation, 3 days, compared to group not treated with SD911
Procedure: (§1) Cell culture for ELISA was coated with 250 ul of mouse anti-CD3 antibody diluted in ccPBS with 0.5 μg/ml in a 24-well plate as many as the number of conditions. After incubation for 2 hours, the supernatant was removed and the cells were seeded at 1×10^6/cells/1 ml and then treated with each drug. After culturing for 3 days, only the cell culture medium was removed and used as IL-10 and IL-17 ELISA samples.

[3] = system: IL-10; test: IL-10 ELISA of cell culture medium under anti-CD3 immune activity; assay type: cell-based, mouse; conditions: anti-CD3 stimulation, 3 days, compared to group not treated with SD911
Procedure: as §1

[4] = system: mouse splenocytes; test: Toxicity test (CCK-8) on mouse splenocytes; assay type: cell-based; conditions: SD911 1, 5, 20 μM, 3 days
Procedure: After 80% seeding of HK-2 cells, 24 hours later, tacrolimus was treated at a concentration of 60 to 70 μg/ml and SD911 was treated at a concentration of 1 to 20 μM and reacted for 3 to 12 hours. In the case of cells isolated as a single cell from mouse spleen tissue, after seeding 2×10^5/cell/200 μl in a 96-well plate in triplicate, each SD911 compound was treated with 1 to 20 μM and reacted for 3 days. Thereafter, the cell counting kit-8 (CCK-8, Dojindo molecular, Rockville, Mass., USA) reagent was treated for 2 hours, and then measured and analyzed at absorbance of 450 nm.

[5] = system: HK-1 cells; test: Tac-induced apoptosis analysis with PI and Annexin-V; assay type: cell-based, human; conditions: Tac combined with SD911 (10 μM), compared to Tac alone
Procedure: In HK-1 cells, the effect of SD911 on ROS production inhibitory ability and apoptosis reduction was identified. Based on the cell viability test results of Example 2 (FIG. 2), inhibitory effects of SD911 on ROS production were investigated at 1, 5, and 10 μM of SD911.

[6] = system: HK-2 cells; test: Cell viability (CCK-8) in HK-2 cells under cytotoxicity induction by tacrolimus; assay type: cell-based, human; conditions: for survival rate: Nil = 100%
Procedure: The human kidney-2 cell line used in this experiment was purchased from ATCC (Manassas, Va., USA) and used. These cells were cultured in Dulbecco's modified Eagle's medium (DMEM; Wisent) containing 10% fetal bovine serum (FBS; Wisent, St. Bruno, Que, Canada), 100 U/mL penicillin, and […] streptomycin (Wisent) in 5% CO2, 37° C. incubator. After 80% seeding of HK-2 cells, 24 hours later, tacrolimus was treated at a concentration of 60 to 70 μg/ml and SD911 was treated at a concentration of 1 to 20 μM and reacted for 3 to 12 hours. In the case of cells isolated as a single cell from mouse spleen tissue, after seeding 2×10^5/cell/200 μl in a 96-well plate in triplicate, each SD911 compound was treated with 1 to 20 μM and reacted for 3 days. Thereafter, the cell counting kit-8 (CCK-8, Dojindo molecular, Rockville, Mass., USA) reagent was treated for 2 hours, and then measured and analyzed at absorbance of 450 nm. The cytoprotective effect of an SD911 compound was investigated under HK-2 cytotoxicity induction by tacrolimus (Tac).

[7] = molecular target: T1, S1P (Sphingosine 1-phosphate) lyase (Mus musculus, UniProt Q8R0X7); test: S1P lyase (SPL) activity in liver lysate, HPLC; assay type: biochemical; conditions: 5 uM inhibitor, 37° C. for 1 hour
T1 construct: After homogenizing the liver tissue of an experimental animal in a lysis buffer; from tissue; host or cells: liver tissue homogenate of an experimental animal
T1 sequence (Q8R0X7 1-568): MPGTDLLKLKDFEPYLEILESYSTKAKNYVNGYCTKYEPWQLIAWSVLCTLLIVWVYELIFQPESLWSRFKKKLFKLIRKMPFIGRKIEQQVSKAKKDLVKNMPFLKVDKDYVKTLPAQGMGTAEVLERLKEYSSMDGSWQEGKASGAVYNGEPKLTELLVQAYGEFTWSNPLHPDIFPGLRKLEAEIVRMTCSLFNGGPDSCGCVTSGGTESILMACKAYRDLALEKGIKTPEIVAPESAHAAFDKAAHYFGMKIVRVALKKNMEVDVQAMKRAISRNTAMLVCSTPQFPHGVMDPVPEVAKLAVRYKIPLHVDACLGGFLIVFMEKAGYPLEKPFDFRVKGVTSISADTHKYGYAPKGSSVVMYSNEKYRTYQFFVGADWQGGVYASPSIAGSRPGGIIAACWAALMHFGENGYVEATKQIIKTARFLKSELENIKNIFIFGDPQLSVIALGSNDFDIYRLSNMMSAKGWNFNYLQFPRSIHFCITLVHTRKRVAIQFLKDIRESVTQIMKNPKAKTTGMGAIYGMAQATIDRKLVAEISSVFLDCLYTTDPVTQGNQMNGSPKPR
Procedure: After homogenizing the liver tissue of an experimental animal in a lysis buffer, protein quantification was performed to secure the concentration, and a mixed solution was prepared under the conditions shown in Table 1 below and reacted at 37° C. for 1 hour.

[8] = system: HK-2 cells; test: Reactive oxygen species (ROS) measurement by DCF-DA flow cytometry in HK-2 cells; assay type: cell-based, human
Procedure: After 80% seeding of HK-2 cells, 24 hours later, tacrolimus was treated at a concentration of 60 to 70 μg/ml and SD911 was treated at a concentration of 1 to 20 μM and reacted for 3 to 12 hours, and then 10 μM of DCF-DA (Molecular probes, Carlebad, Calif., USA) was reacted at 37° C. for 1 hour. Then, cells were harvested and analyzed with 0.05% Trypsin and 0.53 mM EDTA. For analysis, aggregated or broken cells were removed using FSC (forward side scatter) and SSC (side scatter) scatter plots (dot plot) using a FACS Calibur (BD bioscience, San Jose, Calif., USA), and the fluorescence fraction was analyzed in the FL-1H channel (Excitation 488 nm, Emission 513 to 535 nm). Based on the cell viability identification results of Example 1, the ROS production inhibitory effect on 1, 5, and 10 μM of SD911 was investigated. […] In […] cells, the effect of SD911 on ROS production inhibitory ability and apoptosis reduction was identified. Based on the cell viability test results of Example 2 (FIG. 2), inhibitory effects of SD911 on ROS production were investigated at 1, 5, and 10 μM of SD911.

## C[C@@H]1CN(c2nnc(Oc3ccccc3)c3ccccc23)CCN1c1ccc(C#N)cn1 [SD911, 6-((R)-2-methyl-4-(1-phenoxyphthalazin-4-yl)piperazin-1-yl)pyridine-3-carbonitrile]
[1]; SD911 at 3 weeks after engraftment, sacrifice 1 week later
  damage to kidney tissue (GN score, IN score, Vasculitis): the damage to the kidney tissue was reduced
[1]; immunohistochemical staining
  infiltration of IL-17 positive cells in kidney tissue: significantly reduced
  infiltration of human CD4-positive cells in kidney tissue: significantly reduced
[2]
  IL-17 level (ELISA): decreased IL-17
[3]
  IL-10 level (ELISA): increased IL-10 in a concentration-dependent manner
[4]
  toxicity on immune cells (cell viability vs Nil group): no significant difference compared to the Nil group
[5]
  ratio of necrotic cells, apoptotic cells, and early apoptotic cells & necrotic cells: significantly alleviated compared to Tac alone
[6]; 1 μM SD911 in combination with tacrolimus
  survival rate: 81.7%
[6]; 5 μM SD911 in combination with tacrolimus
  survival rate: 81.8%
[6]; 10 μM SD911 in combination with tacrolimus
  survival rate: 72.0%
[6]; 20 μM SD911 in combination with tacrolimus
  survival rate: 37.4%
[6]; SD911 alone at 1, 5, 10 and 20 μM
  own drug toxicity (cell viability compared to Nil): did not have its own drug toxicity
[7]
  reduction of S1P lyase activity compared to the control: about 30%
[8]; 1 μM SD911 combined with tacrolimus
  ROS (DCF-DA fluorescence fraction): 36.5%
[8]; 5 μM SD911 combined with tacrolimus
  ROS (DCF-DA fluorescence fraction): 13.7%
[8]; 10 μM SD911 combined with tacrolimus
  ROS (DCF-DA fluorescence fraction): 9.3%
[8]; SD911 alone at 1, 5 and 10 μM, compared to Nil
  fluorescence fraction of DCF-DA (ROS): almost no difference from that of Nil

## C=CC[C@@H]1/C=C(\C)C[C@H](C)C[C@H](OC)[C@H]2O[C@@](O)(C(=O)C(=O)N3CCCC[C@H]3C(=O)O[C@H](/C(C)=C/[C@@H]3CC[C@@H](O)[C@H](OC)C3)[C@H](C)[C@@H](O)CC1=O)[C@H](C)C[C@@H]2OC [tacrolimus, reference compound]
[6]; tacrolimus (Tac) alone
  survival rate: 56.7%
[8]; tacrolimus (Tac) alone, induction of HK-2 cytotoxicity
  ROS (DCF-DA fluorescence fraction): 31.6%
